{
  "source": "patent US20060135507A1",
  "about": "“Therapeutic agent for overactive bladder involved in aging” (priority 2004, published 2006)",
  "origin": "cited, not measured here",
  "key": {"[1]": {"system": "rat with overactive bladder caused by cerebrovascular disease"}, "[2]": {"system": "human with overactive bladder caused by cerebrovascular disease"}},
  "data": [
    {"molecule": "COc1ccc(C(=O)N2CCCC2=O)cc1", "note": "[Aniracetam]", "values": [
      {"measurement": "micturition reflex", "setting": "[1]", "result": "suppression of micturition reflex is observed"},
      {"measurement": "micturition reflex", "setting": "[2]", "result": "suppression of micturition reflex is observed"}
    ]}
  ]
}
